Measurements published in patent US20250066864A1, “METHODS FOR IDENTIFYING ADAR1 INHIBITORS, AND COMPOSITIONS AND METHODS OF USE IN TREATING CANCER” (The Wistar Institute of Anatomy and Biology, priority 2021, published 2025).
Values after ≈ are worked out from the molar mass of the structure shown. “Also recorded” adds a separate entry of the source.

Tests used:
[1] = tested on: HeLa cells; experiment: dot blot analysis for RNA:DNA hybrids in HeLa cells; type: cell-based, human; details: 10 μM
Description: FIGS. 29A-29D Characterization of Compound #13 effects in cancer cells. […] Viability was examined using the Apo Tox-Glo assay system (Promega). Control, 0.3% DMSO. (FIG. 29B) Western blotting analysis of HeLa cells treated with Compound #13 (10 μM). […] (FIG. 29D) Activation of the IFN signaling pathway. HSC-4 squamous carcinoma cells were treated with Compound #13 at 10 μM (12 hrs). RNA samples were analyzed by qRT-PCR to monitor expression levels of ISGs.
Dot blot analysis of genomic DNA Cells were treated with siRNA for 72 h in a 10 cm dish, detached from the dish surface with TrypLE Express Enzyme, and harvested by centrifugation. After PBS wash, genomic DNA was purified using QIAGEN Blood & Cell Culture DNA Midi Kit. Briefly, the cell pellet was resuspended in buffer C1. After repeated buffer C1 wash and removal of the cell debris, the nuclear pellet was resuspended in buffer G2 (without rNase A) and treated with 2 mg of proteinase K at 50° C. for 60 min. The nuclear fraction was applied to a buffer QBT-treated QIAGEN Genomic-tip and washed twice with buffer QC. […]
Genomic DNA was diluted in 100 μl of 6× saline sodium citrate (SSC) and spotted onto a Hybond N^+ (GE Healthcare) using a Bio-Dot Apparatus (#1706545, Bio-Rad). […] After washing four times with PBST, dot signals were detected with ECL (GE Healthcare) using X-ray films. […]

[2] = water solubility by LC-MS/MS; type: physicochemical; details: water with 1% DMSO, kinetic from dmso stock, tested at 100 μM in 1% DMSO
[3] = target: T1, ADAR1p150 (Homo sapiens, UniProt P55265); experiment: in vitro editing assay, ADAR1p150; type: biochemical; details: dsRNAs (matched, mismatched) and DNA:RNA hybrids; not shown
T1 construct: a full-length interferon-inducible p150 and a shorter N-terminus truncated p110
T1 sequence (P55265 1-1226): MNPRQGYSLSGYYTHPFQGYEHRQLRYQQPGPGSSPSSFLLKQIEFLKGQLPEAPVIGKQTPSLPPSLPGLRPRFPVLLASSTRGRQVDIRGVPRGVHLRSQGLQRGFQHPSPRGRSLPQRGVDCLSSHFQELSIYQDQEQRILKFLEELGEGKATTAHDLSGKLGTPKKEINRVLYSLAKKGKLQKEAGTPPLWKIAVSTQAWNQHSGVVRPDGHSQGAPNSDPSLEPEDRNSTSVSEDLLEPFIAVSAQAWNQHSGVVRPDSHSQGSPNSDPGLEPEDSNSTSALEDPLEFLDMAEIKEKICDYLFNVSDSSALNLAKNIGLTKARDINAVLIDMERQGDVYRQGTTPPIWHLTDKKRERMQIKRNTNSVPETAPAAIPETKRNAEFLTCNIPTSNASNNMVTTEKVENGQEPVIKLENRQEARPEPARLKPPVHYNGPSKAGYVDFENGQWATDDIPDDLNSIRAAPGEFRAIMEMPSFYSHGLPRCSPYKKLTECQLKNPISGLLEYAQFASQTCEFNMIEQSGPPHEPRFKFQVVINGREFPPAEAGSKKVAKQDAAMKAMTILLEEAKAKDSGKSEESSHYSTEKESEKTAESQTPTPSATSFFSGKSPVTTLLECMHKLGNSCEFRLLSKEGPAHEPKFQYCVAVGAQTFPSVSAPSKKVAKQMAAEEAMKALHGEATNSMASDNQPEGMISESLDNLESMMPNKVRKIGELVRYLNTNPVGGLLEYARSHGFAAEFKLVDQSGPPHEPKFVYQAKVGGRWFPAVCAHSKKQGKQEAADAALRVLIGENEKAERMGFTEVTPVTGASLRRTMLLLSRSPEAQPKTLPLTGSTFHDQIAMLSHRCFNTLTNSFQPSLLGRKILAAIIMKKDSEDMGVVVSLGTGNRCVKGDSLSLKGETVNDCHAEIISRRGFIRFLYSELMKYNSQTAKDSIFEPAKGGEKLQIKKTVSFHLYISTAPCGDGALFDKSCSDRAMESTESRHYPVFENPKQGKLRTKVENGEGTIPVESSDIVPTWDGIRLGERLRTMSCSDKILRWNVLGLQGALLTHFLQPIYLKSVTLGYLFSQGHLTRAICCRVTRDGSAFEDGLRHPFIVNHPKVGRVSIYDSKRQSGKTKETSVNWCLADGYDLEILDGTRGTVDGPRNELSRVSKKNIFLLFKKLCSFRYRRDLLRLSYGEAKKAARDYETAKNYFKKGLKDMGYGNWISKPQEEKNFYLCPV
Description: We conducted in vitro editing assay at varying concentrations of Compound #13 with dsRNAs (matched, mismatched) and DNA:RNA hybrids, resulting in determination of IC50 values for ADAR1p110 and ADAR1p150 (not shown) in 7-40 μM ranges: examples of such experiments done for dsRNA are shown (FIG. 8). […] In vivo ADAR1 inhibitory effects in HeLa cells were examined by cDNA sequencing of RT-PCR products of known ADAR1 target RNAs. One example of analysis of such ADAR1 target sites located within the 3′UTR Alu dsRNA of TMPO mRNAs is shown (FIGS. 28A and 28B). This particular ADAR1 target site is highly edited in HeLa cells, more than 80%. Compound #13 inhibited this ADAR1 target site editing down to 0% (FIGS. 28A and 28B).

solubility [2]: 0.59 µM (≈ 0.185 µg/mL)
IC50 [3]: 7 to 40 µM
SMILES: N#Cc1ccc(NC(=O)c2sc3ccccc3c2Cl)cc1 [Compound #13, 3-chloro-N-(4-cyanophenyl)-1-benzothiophene-2-carboxamide]
formation of R-loops (RNA:DNA hybrids) [1]: increased formation of R-loops; also recorded: RNA:DNA hybrids induced
